Laboratory results taken from publication PMC8286840, “Identifying SARS-CoV-2 antiviral compounds by screening for small molecule inhibitors of Nsp3 papain-like protease” (Biochemical Journal, 2021).
Counter-ions that a name gives are not always drawn. Like-named read-outs stand apart in the source and are kept apart here.

Assays:
[1] = target: T1, SARS-CoV-2 PLpro (nsp3 1564–1878) (Severe acute respiratory syndrome coronavirus 2, UniProt P0DTD1); assay: biochemical; set-up: FRET-quenched peptide (Pro3) cleavage by PLpro, 10 min pre-incubation, slope over 20 min, normalised to no-compound control; settings: low concentration screen, read-out: % of control remaining
[2] = target: T1, SARS-CoV-2 PLpro (nsp3 1564–1878); assay: biochemical; set-up: FRET-quenched peptide (Pro3) cleavage by PLpro, 10 min pre-incubation, slope over 20 min, normalised to no-compound control; settings: high concentration screen, read-out: % of control remaining

## COc1cc2ncnc(Nc3ccc(NC(=O)c4ccccc4)cc3)c2cc1OC [Aurora Kinase Inhibitor II]
[1]; Well no.=2321
  remaining activity at 1.25 µM: 99.4%
[2]; Well no.=2321
  remaining activity at 3.75 µM: 99.9%

## Nc1nc(Nc2ccc(S(N)(=O)=O)cc2)nn1C(=O)c1c(F)cccc1F [Aurora Kinase/Cdk Inhibitor]
[1]; Well no.=2356
  remaining activity at 1.25 µM: 98.5%
[2]; Well no.=2356
  remaining activity at 3.75 µM: 100%

## CC1=CC(=O)C2=C(C)C[C@H](O)[C@@H]3[C@H](OC(=O)[C@H]3C)[C@@H]12 [Austricin]
[1]; Well no.=3105
  remaining activity at 1.25 µM: 102%
[2]; Well no.=3105
  remaining activity at 3.75 µM: 105%

## Cc1nc2cccc(N)c2c(=O)n1C1CCC(=O)NC1=O (centres unmarked) [Avadomide]
[1]; Well no.=6870
  remaining activity at 1.25 µM: 99.6%
[2]; Well no.=6870
  remaining activity at 3.75 µM: 95.9%

## COc1ccc(CNc2nc(N3CCC[C@H]3CO)ncc2C(=O)NCc2ncccn2)cc1Cl [Avanafil]
[1]; Well no.=5078
  remaining activity at 1.25 µM: 101%
[2]; Well no.=5078
  remaining activity at 3.75 µM: 100%

## CC(C)c1cc(C(C)C)c(CC(=O)NS(=O)(=O)Oc2c(C(C)C)cccc2C(C)C)c(C(C)C)c1 [Avasimibe]
[1]; Well no.=5705
  remaining activity at 1.25 µM: 99.6%
[1]; Well no.=8336
  remaining activity at 1.25 µM: 89.6%
[2]; Well no.=5705
  remaining activity at 3.75 µM: 96.6%
[2]; Well no.=8336
  remaining activity at 3.75 µM: 88%

## COc1ccccc1Oc1c(NS(=O)(=O)c2ccc(C)cn2)nc(-c2ccncc2)nc1OC [Avosentan]
[1]; Well no.=7281
  remaining activity at 1.25 µM: 102%
[2]; Well no.=7281
  remaining activity at 3.75 µM: 100%

## CNC(=O)c1ccccc1Sc1ccc2c(/C=C/c3ccccn3)n[nH]c2c1 [Axitinib]
[1]; Well no.=2803
  remaining activity at 1.25 µM: 101%
[2]; Well no.=2803
  remaining activity at 3.75 µM: 99.1%

## OC(c1ccccc1)(c1ccccc1)C1CCNCC1 [Azacyclonol]
[1]; Well no.=5068
  remaining activity at 1.25 µM: 97.2%
[2]; Well no.=5068
  remaining activity at 3.75 µM: 103%

## O=C(CCCN1CCN(c2ccccn2)CC1)c1ccc(F)cc1 [Azaperone]
[1]; Well no.=2163
  remaining activity at 1.25 µM: 100%
[1]; Well no.=6471
  remaining activity at 1.25 µM: 102%
[2]; Well no.=2163
  remaining activity at 3.75 µM: 103%
[2]; Well no.=6471
  remaining activity at 3.75 µM: 101%

## CN1C(=O)COc2c(C(=O)NC3CN4CCC3CC4)cc(Cl)cc21 (centres unmarked) [Azasetron (hydrochloride)]
[1]; Well no.=8243
  remaining activity at 1.25 µM: 96.2%
[2]; Well no.=8243
  remaining activity at 3.75 µM: 96.1%

## CN1CCC(=C2c3ccccc3CCc3cccnc32)CC1 [Azatadine (dimaleate)]
[1]; Well no.=7617
  remaining activity at 1.25 µM: 103%
[2]; Well no.=7617
  remaining activity at 3.75 µM: 105%

## CN1CCC(=C2c3ccccc3CCc3cccnc32)CC1 [Azatadine dimaleate]
[1]; Well no.=5036
  remaining activity at 1.25 µM: 99%
[2]; Well no.=5036
  remaining activity at 3.75 µM: 102%

## Cn1cnc([N+](=O)[O-])c1Sc1ncnc2[nH]cnc12 [Azathioprine]
[1]; Well no.=111
  remaining activity at 1.25 µM: 99.7%
[1]; Well no.=1834
  remaining activity at 1.25 µM: 102%
[2]; Well no.=111
  remaining activity at 3.75 µM: 100%
[2]; Well no.=1834
  remaining activity at 3.75 µM: 97.6%

## O=C(O)CCCCCCCC(=O)O [Azelaic acid]
[1]; Well no.=243
  remaining activity at 1.25 µM: 100%
[1]; Well no.=6157
  remaining activity at 1.25 µM: 108%
[2]; Well no.=243
  remaining activity at 3.75 µM: 98.7%
[2]; Well no.=6157
  remaining activity at 3.75 µM: 105%

## CN1CCCC(n2nc(Cc3ccc(Cl)cc3)c3ccccc3c2=O)CC1 (centres unmarked) [Azelastine (hydrochloride)]
[1]; Well no.=6173
  remaining activity at 1.25 µM: 103%
[2]; Well no.=6173
  remaining activity at 3.75 µM: 105%

## CC1=C(C(=O)OC(C)C)C(c2cccc([N+](=O)[O-])c2)C(C(=O)OC2CN(C(c3ccccc3)c3ccccc3)C2)=C(N)N1 (centres unmarked) [Azelnidipine]
[1]; Well no.=5275
  remaining activity at 1.25 µM: 97.2%
[2]; Well no.=5275
  remaining activity at 3.75 µM: 93.3%

## CCOc1nc2cccc(C(=O)O)c2n1Cc1ccc(-c2ccccc2-c2noc(=O)[nH]2)cc1 [Azilsartan]
[1]; Well no.=5416
  remaining activity at 1.25 µM: 97.2%
[1]; Well no.=6813
  remaining activity at 1.25 µM: 90.2%
[2]; Well no.=5416
  remaining activity at 3.75 µM: 95.7%
[2]; Well no.=6813
  remaining activity at 3.75 µM: 89.9%

## CC[C@H]1OC(=O)[C@H](C)[C@@H](O[C@H]2C[C@@](C)(OC)[C@@H](O)[C@H](C)O2)[C@H](C)[C@@H](O[C@@H]2O[C@H](C)C[C@H](N(C)C)[C@H]2O)[C@](C)(O)C[C@@H](C)CN(C)[C@H](C)[C@@H](O)[C@]1(C)O [Azithromycin]
[1]; Well no.=2167
  remaining activity at 1.25 µM: 97.4%
[2]; Well no.=2167
  remaining activity at 3.75 µM: 102%

## CC1(C)S[C@@H]2[C@H](NC(=O)[C@H](NC(=O)N3CCNC3=O)c3ccccc3)C(=O)N2[C@H]1C(=O)O [Azlocillin (sodium salt)]
[1]; Well no.=7454
  remaining activity at 1.25 µM: 94.9%
[2]; Well no.=7454
  remaining activity at 3.75 µM: 101%

## CC1(C)S[C@@H]2[C@H](NC(=O)[C@H](NC(=O)N3CCNC3=O)c3ccccc3)C(=O)N2[C@H]1C(=O)O [Azlocillin sodium salt]
[1]; Well no.=5356
  remaining activity at 1.25 µM: 98.5%
[2]; Well no.=5356
  remaining activity at 3.75 µM: 93.9%

## c1ccc(/N=N/c2ccccc2)cc1 [Azobenzene]
[1]; Well no.=8080
  remaining activity at 1.25 µM: 102%
[2]; Well no.=8080
  remaining activity at 3.75 µM: 101%

## O=[N+]([O-])c1ncc[nH]1 [Azomycin]
[1]; Well no.=3571
  remaining activity at 1.25 µM: 109%
[2]; Well no.=3571
  remaining activity at 3.75 µM: 103%

## CCCC(=O)NCCc1csc(-c2ccc(Cl)cc2)n1 [Azoramide]
[1]; Well no.=8488
  remaining activity at 1.25 µM: 98.4%
[2]; Well no.=8488
  remaining activity at 3.75 µM: 99.7%

## C[C@H]1[C@H](NC(=O)/C(=N\OC(C)(C)C(=O)O)c2csc(N)n2)C(=O)N1S(=O)(=O)O [Aztreonam]
[1]; Well no.=2169
  remaining activity at 1.25 µM: 103%
[2]; Well no.=2169
  remaining activity at 3.75 µM: 102%

## C=CCN1CCc2nc(N)sc2CC1 [B-HT 920]
[1]; Well no.=8195
  remaining activity at 1.25 µM: 99.9%
[2]; Well no.=8195
  remaining activity at 3.75 µM: 100%

## CCN1CCc2nc(N)oc2CC1 [B-HT 933 dihydrochloride]
[1]; Well no.=87
  remaining activity at 1.25 µM: 102%
[2]; Well no.=87
  remaining activity at 3.75 µM: 105%

## O=C(NCCCN1CCC2(CC1)OCc1ccccc12)[C@H]1CCCN1Cc1ccccc1 [BAN ORL 24]
[1]; Well no.=6946
  remaining activity at 1.25 µM: 97.7%
[2]; Well no.=6946
  remaining activity at 3.75 µM: 102%

## Cc1ccc(S(=O)(=O)/C=C/C#N)cc1 [BAY 11-7082]
[1]; Well no.=79
  remaining activity at 1.25 µM: 102%
[1]; Well no.=2360
  remaining activity at 1.25 µM: 98.2%
[2]; Well no.=79
  remaining activity at 3.75 µM: 99.5%
[2]; Well no.=2360
  remaining activity at 3.75 µM: 99.1%
[2]; Well no.=6204
  remaining activity at 3.75 µM: 104%

## Nc1nc(-c2nn(Cc3ccccc3F)c3ncccc23)ncc1C1CC1 [BAY 41-2272]
[1]; Well no.=7717
  remaining activity at 1.25 µM: 102%
[2]; Well no.=7717
  remaining activity at 3.75 µM: 94.6%

## CCn1c(=O)c2c(C)c(C(=O)N3CCC(O)CC3)sc2n(CCC(F)(F)F)c1=O [BAY-545]
[1]; Well no.=8597
  remaining activity at 1.25 µM: 106%
[2]; Well no.=8597
  remaining activity at 3.75 µM: 104%

## CC(=O)C1=C(C)N(c2cccc(C(F)(F)F)c2)C(=O)N[C@@H]1c1ccc(C#N)nc1 [BAY-678]
[1]; Well no.=7734
  remaining activity at 1.25 µM: 97.9%
[2]; Well no.=7734
  remaining activity at 3.75 µM: 101%
